According to patent US5686486A, “4-hydroxy-benzopyran-2-ones and 4-hydroxy-cycloalkyl[b]pyran-2-ones useful to treat retroviral infections” (priority 1995, dated 1997):
Like-named read-outs stand apart in the source and are kept apart here.

How the values were obtained:
[1] = molecular target: T1, HIV-1 protease (Human immunodeficiency virus type 1 group M subtype B, UniProt P04585); assay: biochemical; conditions: for inhibition at 0.41 µM: read-out: HIV-1 Protease % Inhib, dose 0.410 uM; for inhibition at 1.23 µM: read-out: HIV-1 Protease % Inhib, dose 1.230 uM; for inhibition at 3.7 µM: read-out: HIV-1 Protease % Inhib, dose 3.700 uM; for inhibition at 11 µM: read-out: HIV-1 Protease % Inhib, dose 11.000 uM; for inhibition at 33 µM: read-out: HIV-1 Protease % Inhib, dose 33.000 uM; for inhibition at 100 µM: read-out: HIV-1 Protease % Inhib, dose 100.000 uM; for inhibition at 0.123 µM: read-out: HIV-1 Protease % Inhib, dose 0.123 uM; for inhibition at 0.37 µM: read-out: HIV-1 Protease % Inhib, dose 0.370 uM; for inhibition at 1.1 µM: read-out: HIV-1 Protease % Inhib, dose 1.100 uM; for inhibition at 3.3 µM: read-out: HIV-1 Protease % Inhib, dose 3.300 uM; for inhibition at 10 µM: read-out: HIV-1 Protease % Inhib, dose 10.000 uM; for inhibition at 30 µM: read-out: HIV-1 Protease % Inhib, dose 30.000 uM
How it was run: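 Percent inhibition derived from fluorescent cleavage product separated by filtration after streptavidin-bead capture of intact biotin/FITC substrate. Reaction: enzyme (10 μl, 0.1 μM stock) with substrate (20 μl, 0.2 μM stock) and compound, 1 h at room temperature in dark, pH 5.5 acetate buffer with 1.0 M NaCl and 0.05% NP-40.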

[2] = molecular target: T1, HIV-1 protease; assay: biochemical
How it was run: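 Enzyme (40 nM stock) and substrate (200 μM stock) incubated with inhibitor, 24–48 two-fold serial concentrations, for 90 min at room temperature, then quenched with avidin beads. Nonlinear least-squares analysis gives Ki; a known-Ki inhibitor validates each run.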

| SMILES | inhibition at 0.41 µM [1] | inhibition at 1.23 µM [1] | inhibition at 3.7 µM [1] | inhibition at 11 µM [1] | inhibition at 33 µM [1] | inhibition at 100 µM [1] | Ki ([2]; read-out: HIV-1 FITC KI) | inhibition at 0.123 µM [1] | inhibition at 0.37 µM [1] | inhibition at 1.1 µM [1] | inhibition at 3.3 µM [1] | inhibition at 10 µM [1] | inhibition at 30 µM [1] | Ki ([2]; HIV-1 FITC KI) |
| --- | --- | --- | --- | --- | --- | --- | --- | --- | --- | --- | --- | --- | --- | --- |
| C=CCCC1CCCCc2c1oc(=O)c(C(c1ccccc1)C1CC1)c2O (centres unmarked) [Example 135, 9-But-3-enyl-3-(cyclopropyl-phenyl-methyl)4-hydroxy-6,7,8,9-tetrahydro-5H-cyclohepta[b]pyran-2-one] | 87.1% | 92.5% | 96.7% | 82.4% | 71.2% | 63.6% | 30 nM | – | – | – | – | – | – | – |
| O=c1oc2c(c(O)c1C(c1cccc(NS(=O)(=O)c3cc(Cl)sc3Cl)c1)C1CC1)CCCCCC2 (centres unmarked) [Example 304, 2,5-Dichloro-N-[3-[cyclopropyl(5,6,7,8,9,10-hexahydro-4-hydroxy-2-oxo-2H-cycloocta[b]pyran-3-yl)methyl]phenyl]-3-thiophenesulfonamide] | – | – | – | – | – | – | 27.9 nM | 25.7% | 60.2% | 85.9% | 97.8% | 104% | 95.6% | – |
| O=C(Nc1cccc(C(c2c(O)c3c(oc2=O)CCCCCC3)C2CC2)c1)OCc1ccccc1 (centres unmarked) [Example 119, Carbamic acid, [3-[cyclopropyl(5,6,7,8,9,10-hexahydro-4-hydroxy-2-oxo-2H-cycloocta[b]pyran-3-yl)methyl]phenyl]-, phenylmethyl ester] | 27.5% | 55.4% | 82.5% | 97.7% | 96.8% | 101% | 257 nM | – | – | – | – | – | – | – |
| CCC(c1cccc(NS(=O)(=O)CCNC(=O)OC(C)(C)C)c1)c1c(O)c2ccccc2oc1=O (centres unmarked) [Example 140, 2-(N-t-butyloxycarbonyl-amino)-ethanesulfonic acid (3-(1-(4-hydroxy-2-oxo-2H-chromen-3-yl)-propyl)-phenyl)-amide] | < 10% | 16.5% | 48.1% | 71.8% | 91.1% | 109% | – | – | – | – | – | – | – | 762 nM |
| O=c1oc2c(c(O)c1C(c1cccc(NS(=O)(=O)c3ccc(CBr)cc3)c1)C1CC1)CCCCCC2 (centres unmarked) [Example 403, 4-(Bromomethyl)-N-[3-[cyclopropyl(5,6,7,8,9,10-hexahydro-4-hydroxy-2-oxo-2H-cycloocta[b]pyran-3-yl)methyl]phenyl]-benzenesulfonamide] | – | – | – | – | – | – | 5 nM | 41.6% | 77.5% | 92.9% | 94.8% | 95.6% | 97% | – |
| O=C(NCc1ccc(C(c2c(O)c3c(oc2=O)CCCCCC3)C2CC2)s1)OCc1ccccc1 (stereo not drawn) [Example 389, 3-(α-Cyclopropyl (5-(N-carbobenzoxy)aminomethyl)thien-2-ylmethyl)-4-hydroxy-5,6,7,8,9,10-hexahydrocycloocta[b]pyran-2-one] | – | – | – | – | – | – | 46.2 nM | – | 21.1% | 58% | 78.7% | 96.4% | 98.7% | – |
| CC(C)CC(c1cccc(NS(=O)(=O)c2ccc(C#N)cc2)c1)c1c(O)c2c(oc1=O)CCCCCC2 (centres unmarked) [Example 426, Benzenesulfonamide, 4-cyano-N-[3-[1-(5,6,7,8,9,10-hexahydro-4-hydroxy-2-oxo-2H-cycloocta[b]pyran-3-yl)-3-methylbutyl]phenyl]-] | – | – | – | – | – | – | 1.48 nM | 102% | 117% | 109% | 102% | 102% | 106% | – |
| O=c1oc2c(c(O)c1C(c1cccc(NS(=O)(=O)c3ccc(S(=O)(=O)c4ccccc4)s3)c1)C1CC1)CCCCCC2 (centres unmarked) [Example 299, N-[3-[Cyclopropyl(5,6,7,8,9,10-hexahydro-4-hydroxy-2-oxo-2H-cycloocta[b]pyran-3-yl)methyl]phenyl]-5-(phenylsulfonyl)-2-thiophenesulfonamide] | – | – | – | – | – | – | 2.3 nM | 78.5% | 97.8% | 97.5% | 91.7% | 104% | 98.4% | – |
| Cc1cncc(S(=O)(=O)Nc2cccc(C(c3c(O)c4c(oc3=O)CCCCCC4)C3CC3)c2)c1 (centres unmarked) [Example 315, N-[3-[Cyclopropyl(5,6,7,8,9,10-hexahydro4-hydroxy-2-oxo-2H-cycloocta[b]pyran-3-yl)methyl]phenyl]-5-methyl-3-pyridinesulfonamide] | – | – | – | – | – | – | 2.58 nM | 80.7% | 94.7% | 91.9% | 95.2% | 86.7% | 81.4% | – |
